Data taken from patent US9229013B2, “Vasoactive hormone-based stratification of patients suffering from diseases related to endothelial function/dysfunction” (B.R.A.H.M.S GMBH, priority 2009, dated 2016).
Marks after values point to notes of the source that are not given here.

Legend:
Assay type in all cases: in vivo, human
[1] = test system: patients having suffered from ischemic or haemorrhagic stroke or TIA; assay: COSMOS study: survival (deaths), hazard ratio medication vs no medication, stratified by biomarker quintile; conditions: for effect of administration at high (higher) levels of vasoactive hormones / effect of administration at low (lower) levels of vasoactive hormones: COSMOS study, summary of Table 2; for HR Medicament Marker-Quintile 1 / HR Medicament Marker-Quintile 2-4 / HR Medicament Marker-Quintile 5 / HR Medicament (overall patient group): COSMOS
From the text: (§1) Suitable threshold levels for the stratification of subjects into different groups (categories) have to be determined for each particular combination of vasoactive hormone or fragments thereof or precursors or fragments thereof, medication and disease. This can e.g. be done by grouping a reference population of patients according to their level of vasoactive hormone into certain quantiles, e.g. tertiles, quartiles, quintiles or even according to suitable percentiles. […] A HR around 1 (e.g. +/−0.1) indicates no elevated risk but also no benefit from medication for the particular group of patients. By comparison of the HR between certain quantiles of patients with each other and with the HR of the overall population of patients, it is possible to identify those quantiles of patients who have an elevated risk and those who benefit from medication and thereby stratify subjects according to the present invention.
FIGS. 9 to 13 illustrate the survival rate for patients suffering from ischemic stroke, hemorrhagic stroke or transient ischemic attack from the “Copeptin to guide disease severity and Management, Osmostatus and Stress” (“COSMOS”).
The study was set at the emergency and neurological and neurosurgical clinic of the University Hospital of Basel. All consecutive patients who are admitted to the emergency department with an ischemic or hemorrhagic stroke or transient ischemic attack (TIA) according to the World Health Organization criteria with symptom onset within the last 3 days were included into the study. Patients without an informed consent were excluded.
Step 5. In patients with ischemic stroke a telephone follow-up regarding morbidity and mortality (as assessed by the Barthel Index and Ranking Scale) will be obtained after 3 months. An unfavorable outcome will be defined as a Barthel index <85 or modified Ranking scale of 3 to 6. II) Post-Myocardial Infarction (MI) Patients (Leicester Acute Myocardial Infarction Peptide Study (“LAMP”)) Study Population:
(§2) Survival rates, i.e. the proportion of patients surviving at a given time after entry into the studies, are plotted in the appended figures over time for different combinations of a particular vasoactive hormone with a particular medication. The patients have been stratified into quintiles according to their respective hormone levels. […] For some cases, two or more quintiles have been pooled were appropriate. Hazard ratios (HR) have been calculated for various combinations of particular vasoactive hormones with particular medications. HR have also been calculated for particular quintiles and/or pooled quintiles and compared to overall HR for each combination.
Table 2 lists the results for the patients from the COSMOS study (patients having suffered from ischemic or haemorrhagic stroke or TIA).

[2] = test system: patients having suffered a myocardial infarction; assay: LAMP study (Outcome MACE): hazard ratio medication vs no medication, stratified by biomarker quintile
From the text: as §1
(§3) FIGS. 14 to 21 illustrate the survival rate for patients suffering from myocardial infarction from the “Leicester Acute Myocardial Infarction Peptide Study” (“LAMP”). FIGS. 22 to 34 illustrate the rate of major cardiac events for patients suffering from acute myocardial infarction from “LAMP-Study”.
The study involved 983 consecutive patients with acute myocardial infarction (AMI) admitted to the Coronary Care Unit of Leicester Royal Infirmary. […] Acute myocardial infarction was subcategorized into ST-segment elevation myocardial infarction (STEMI) or non-ST-segment myocardial infarction (NSTEMI).
Blood samples were drawn on 1 occasion 3 to 5 days after the onset of chest pain. After 15 min bed rest, 20 ml blood was collected into tubes containing ethylendiaminetetraacetic acid (EDTA) and aprotinin. All plasma samples were stored at −70° C. until assayed in a blinded fashion in a single batch. In a subgroup of 132 patients from the original 983-patient cohort, blood sampling was performed daily for 5 days from admission to discharge.
as §2

[3] = test system: patients having suffered a myocardial infarction; assay: LAMP study (Outcome Death): hazard ratio medication vs no medication, stratified by biomarker quintile; conditions: LAMP, Outcome Death
From the text: Suitable threshold levels for the stratification of subjects into different groups (categories) have to be determined for each particular combination of vasoactive hormone or fragments thereof or precursors or fragments thereof, medication and disease. This can e.g. be done by grouping a reference population of patients according to their level of vasoactive hormone into certain quantiles, e.g. tertiles, quartiles, quintiles or even according to suitable percentiles. […] A HR around 1 (e.g. +/−0.1) indicates no elevated risk but also no benefit from medication for the particular group of patients.
as §3
Acute myocardial infarction was subcategorized into ST-segment elevation myocardial infarction (STEMI) or non-ST-segment myocardial infarction (NSTEMI).
Blood samples were drawn on 1 occasion 3 to 5 days after the onset of chest pain. After 15 min bed rest, 20 ml blood was collected into tubes containing ethylendiaminetetraacetic acid (EDTA) and aprotinin. All plasma samples were stored at −70° C. until assayed in a blinded fashion in a single batch.
as §2

COC(=O)[C@H](c1ccccc1Cl)N1CCc2sccc2C1 [Plavix]
effect of administration at high (higher) levels of vasoactive hormones [1]: positive effect
effect of administration at low (lower) levels of vasoactive hormones [1]: unfavourable effect
HR Medicament Marker-Quintile 1 ([1]; MR-proADM 0.05-0.47 nmol/L): 1.8
HR Medicament Marker-Quintile 2-4 ([1]; MR-proADM 0.47-0.91 nmol/L): 0.2
HR Medicament Marker-Quintile 5 ([1]; MR-proADM 0.91-5.49 nmol/L): 0.1
HR Medicament (overall patient group) ([1]; biomarker MR-proADM): 0.3

O=C(NCCO[N+](=O)[O-])c1cccnc1 [Nicorandil]
HR Medicament in Marker-Quantile 1 ([2]; CT-proET-1 4.6-56.6 pmol/L): 7.1
HR Medicament in Marker-Quantile 2-4 ([2]; CT-proET-1 56.6-118 pmol/L): 1.2
HR Medicament in Marker-Quantile 5 ([2]; CT-proET-1 118-671 pmol/L): 0.7
HR Medicament (overall patient group) ([2]; biomarker CT-proET-1): 1.2
HR Medicament in Marker-Quantile 1 ([3]; NT-proBNP 0.3-204 pg/mL): 4.8
HR Medicament in Marker-Quantile 2-4 ([3]; NT-proBNP 204-3160 pg/mL): <0.1
HR Medicament in Marker-Quantile 5 ([3]; NT-proBNP 3160-11800 pg/mL): 0.5
HR Medicament (overall patient group) ([3]; biomarker NT-proBNP): 0.5

CC(=O)Oc1ccccc1C(=O)O [Acetylsalicylic acid]
effect of administration at high (higher) levels of vasoactive hormones [1]: unfavourable effect
effect of administration at low (lower) levels of vasoactive hormones [1]: positive effect
HR Medicament Marker-Quintile 5 ([1]; CT-proAVP 23.5-499 pmol/L): 2.6
HR Medicament Marker-Quintile 1 ([1]; CT-proET-1 4.5-55.5 pmol/L): 0.5
HR Medicament Marker-Quintile 2-4 ([1]; CT-proET-1 55.5-93.1 pmol/L): 1.5
HR Medicament Marker-Quintile 5 ([1]; CT-proET-1 93.1-368 pmol/L): 2.5
HR Medicament Marker-Quintile 1 ([1]; MR-proADM 0.05-0.47 nmol/L): 0.6
HR Medicament Marker-Quintile 2-4 ([1]; MR-proADM 0.47-0.91 nmol/L): 0.7
HR Medicament Marker-Quintile 5 ([1]; MR-proADM 0.91-5.49 nmol/L): 2.4
HR Medicament Marker-Quintile 1 ([1]; MR-proANP 20.8-71.6 pmol/L): <0.1
HR Medicament Marker-Quintile 2-4 ([1]; MR-proANP 71.6-240 pmol/L): 1.7
HR Medicament Marker-Quintile 5 ([1]; MR-proANP 240-1560 pmol/L): 2.3
HR Medicament Marker-Quintile 2-4 ([1]; Quintiles 1 to 4 are pooled, CT-proAVP 0.69-23.5 pmol/L): 0.8*
HR Medicament (overall patient group) ([1]; biomarker CT-proAVP): 1.3
HR Medicament (overall patient group) ([1]; biomarker CT-proET-1): 1.4
HR Medicament (overall patient group) ([1]; biomarker MR-proADM): 1
HR Medicament (overall patient group) ([1]; biomarker MR-proANP): 1.3
deaths with medication ([1]; FIG. 12A, marker MR-proANP, overall population, n=209 with medication): 20
deaths with medication ([1]; FIG. 12B, 1st MR-proANP quintile (22.3-69.5 pmol/L), n=51 with medication): 0
deaths with medication ([1]; FIG. 12C, 2nd to 4th MR-proANP quintiles (69.5-250 pmol/L), n=124 with medication): 6
deaths with medication ([1]; FIG. 12D, 5th MR-proANP quintile (250-1540 pmol/L), n=34 with medication): 14
HR Medicament in Marker-Quantile 1 ([3]; CT-proAVP 0.31-4.6 pmol/L): >100
HR Medicament in Marker-Quantile 2-4 ([3]; CT-proAVP 4.6-42.1 pmol/L): 0.4
HR Medicament in Marker-Quantile 5 ([3]; CT-proAVP 42.1-1040 pmol/L): 0.3
HR Medicament in Marker-Quantile 1 ([3]; MR-proADM 0.035-0.47 nmol/L): >100
HR Medicament in Marker-Quantile 2-4 ([3]; MR-proADM 0.47-1.18 nmol/L): 0.5
HR Medicament in Marker-Quantile 5 ([3]; MR-proADM 1.18-6.75 nmol/L): 0.3
HR Medicament in Marker-Quantile 1 ([3]; MR-proANP 14.5-59.6 pmol/L): >100
HR Medicament in Marker-Quantile 2-4 ([3]; MR-proANP 59.6-283 pmol/L): 0.4
HR Medicament in Marker-Quantile 5 ([3]; MR-proANP 283-1650 pmol/L): 0.4
HR Medicament in Marker-Quantile 1 ([3]; NT-proBNP 0.12-184 pg/mL): >100
HR Medicament in Marker-Quantile 2-4 ([3]; NT-proBNP 184-2700 pg/mL): 0.3
HR Medicament in Marker-Quantile 5 ([3]; NT-proBNP 2700-34100 pg/mL): 0.5
HR Medicament (overall patient group) ([3]; biomarker CT-proAVP): 0.3
HR Medicament (overall patient group) ([3]; biomarker MR-proADM): 0.3
HR Medicament (overall patient group) ([3]; biomarker MR-proANP): 0.3
HR Medicament (overall patient group) ([3]; biomarker NT-proBNP): 0.3
